pIC50: −log10 of the molar value.
Each compound was assayed against M-phase inducer phosphatase 2 (Homo sapiens) (UniProt P30305) (assay: Cdc25B catalytic domain phosphatase inhibitors, dose response, biochemical, with glutathione, probe assessment (AID 671)). Conditions: recombinant Cdc25B catalytic domain, phosphatase activity.
Sequence of M-phase inducer phosphatase 2 (Homo sapiens) (P30305 whole entry, looked up, the tested form may be a part): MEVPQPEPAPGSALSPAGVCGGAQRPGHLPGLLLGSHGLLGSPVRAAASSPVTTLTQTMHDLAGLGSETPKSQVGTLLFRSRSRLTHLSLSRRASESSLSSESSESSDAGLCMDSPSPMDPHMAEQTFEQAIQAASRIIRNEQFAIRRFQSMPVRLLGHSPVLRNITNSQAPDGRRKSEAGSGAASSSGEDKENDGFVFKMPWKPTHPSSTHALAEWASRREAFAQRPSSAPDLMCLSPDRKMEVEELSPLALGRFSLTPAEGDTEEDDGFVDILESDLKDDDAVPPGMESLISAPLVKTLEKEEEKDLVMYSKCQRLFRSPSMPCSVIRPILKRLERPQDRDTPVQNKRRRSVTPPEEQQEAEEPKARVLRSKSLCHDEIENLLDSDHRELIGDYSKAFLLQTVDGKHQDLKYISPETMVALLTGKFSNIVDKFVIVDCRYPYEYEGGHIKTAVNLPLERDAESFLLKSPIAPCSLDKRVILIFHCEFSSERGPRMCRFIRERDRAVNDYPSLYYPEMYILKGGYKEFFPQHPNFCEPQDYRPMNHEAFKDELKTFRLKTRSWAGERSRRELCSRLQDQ

| Compound | pIC50 |
| --- | --- |
| Cc1ccc2c(c1)C1C=CCC1C(C(=O)O)N2 (stereo not drawn) | 5.23 |

Same assay, conditions: recombinant Cdc25B catalytic domain, phosphatase activity, measured here: inhibition at top dose 50 uM, at 50 µM, stronger effect = higher value

| Compound | inhibition [%] |
| --- | --- |
| CCn1nc(-c2ccccc2)nc2c(=O)n(C)c(=O)nc1-2 | 34.5 |
| O=C(OC1CCCCC1)c1ccc2c(c1)C1C=CCC1C(C(=O)O)N2 (stereo not drawn) | 90.2 |
| CCOc1ccc2noc3c2c1C(=O)c1ccccc1-3 | 30.7 |
| c1ccc(CSc2nnc(-c3ccco3)c(-c3ccco3)n2)cc1 | 84.7 |
| Cn1ncnc2c(=O)n(C)c(=O)nc1-2 | 63 |
| COc1ccc2noc3c2c1C(=O)c1ccccc1-3 | 16.7 |
| [O-]/[N+](=C\c1ccncc1)c1ccccc1 | 4.4 |
| CCn1nc(-c2cccs2)nc2c(=O)n(C)c(=O)nc1-2 | 41.5 |
| COc1ccc(Br)cc1/C=c1\sc2nc(-c3ccco3)nn2c1=O | 91.7 |
| N#Cc1c(N)sc(=S)c2c1CCN(Cc1ccccc1)C2 | 51 |
| CC(=O)Nc1cc(OC(C)=O)c2nonc2c1OC(C)=O | 28.7 |
| O=C1Cc2ccccc2C(=O)N1CCc1ccccc1 | 7.6 |
| Cc1ccccc1Nc1cc2ccccc2c(=O)[nH]1 | 40.3 |
| O=C(Nc1ccc2nc(-c3ccco3)c(-c3ccco3)nc2c1)N1CCCCCC1 | 85.5 |
| O=C1C=Cc2ccccc2C1=O | 78.6 |
| Cc1ccc2c(c1C)NC(C(=O)O)C1CC=CC21 (stereo not drawn) | 89.9 |
| [O-]/[N+](=C\c1ccc(OC(F)F)cc1)c1ccccc1 | 8.3 |
| Nc1cccc2cnccc12 | -3.3 |
| COc1cccc2c(C)c(C(=O)O)[nH]c12 | 85.7 |
| CCOC(=O)C(C(=O)OCC)c1cc(Br)c2noc3c2c1C(=O)c1ccccc1-3 | 36.5 |
| O=C(O)C1Nc2c(O)cccc2C2C=CCC12 (stereo not drawn) | 94.8 |
| COc1cccc2c1NC(C(=O)O)C1CC=CC21 (stereo not drawn) | 85 |
| O=C(NC1(O)C(=O)c2ccccc2C1=O)c1ccccc1 | 36 |
| Cc1ccc2c(c1)C1C=CCC1C(C(=O)O)N2 (stereo not drawn) | 88.9 |
| N#Cc1c(N2CCCC2)nc(N)c2c(N)nc(N3CCCC3)cc12 | -13.3 |
| O=c1[nH]c(Nc2ccccc2)cc2ccccc12 | 48.6 |
| Cc1c(N=c2c(=O)c3ccccc3c2=O)c(=O)n(-c2ccccc2)n1C | 30.4 |
